Source: US8431565B2 (priority 2007, dated 2013)

Target: T1, rat CB2 receptor (rCB2) (Rattus norvegicus, UniProt Q9QZN9)
T1 sequence (Q9QZN9 1-360): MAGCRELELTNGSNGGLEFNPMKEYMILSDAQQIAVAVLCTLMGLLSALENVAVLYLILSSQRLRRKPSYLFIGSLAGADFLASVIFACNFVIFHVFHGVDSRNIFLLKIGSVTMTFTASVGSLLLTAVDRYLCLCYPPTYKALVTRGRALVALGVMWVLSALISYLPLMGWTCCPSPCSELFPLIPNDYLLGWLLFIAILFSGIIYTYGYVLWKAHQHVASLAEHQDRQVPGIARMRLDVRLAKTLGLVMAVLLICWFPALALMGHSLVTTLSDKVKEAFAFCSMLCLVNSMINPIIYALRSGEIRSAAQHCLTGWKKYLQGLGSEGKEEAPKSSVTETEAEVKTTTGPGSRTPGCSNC

`CCN1CCn2c(-c3ccccc3)nc(C(=O)N[C@H](C(=O)NC)C(C)(C)C)c2C1` [Compound 149, (S)-N-(3,3-dimethyl-1-(methylamino)-1-oxobutan-2-yl)-7-ethyl-3-phenyl-5,6,7,8-tetrahydroimidazo[1,5-a]pyrazine-1-carboxamide] and `CNC(=O)[C@@H](NC(=O)c1nc(-c2ccccc2)n2c1CN(C1CC1)CC2)C(C)(C)C` [Compound 197, (S)-7-cyclopropyl-N-(3,3-dimethyl-1-(methylamino)-1-oxobutan-2-yl)-3-phenyl-5,6,7,8-tetrahydroimidazo[1,5-a]pyrazine-1-carboxamide] fall in the same range of EC50: 10 to 100 nM for the first, 10 to 100 nM for the second.

`CC(C)CN1CCn2c(-c3ccccc3)nc(C(=O)Nc3ccccc3)c2C1` [Compound 150, 7-isobutyl-N,3-diphenyl-5,6,7,8-tetrahydroimidazo[1,5-a]pyrazine-1-carboxamide] and `CCCN1CCn2c(-c3ccccc3)nc(C(=O)Nc3ccccc3)c2C1` [Compound 154, N,3-diphenyl-7-propyl-5,6,7,8-tetrahydroimidazo[1,5-a]pyrazine-1-carboxamide] fall in the same range of EC50: 10 to 100 nM for the first, 10 to 100 nM for the second.

`CC(C)CN1CCn2c(-c3ccccc3)nc(C(=O)NN3CCCCC3)c2C1` [Compound 155, 7-isobutyl-3-phenyl-N-(piperidin-1-yl)-5,6,7,8-tetrahydroimidazo[1,5-a]pyrazine-1-carboxamide] and `CC(C)CN1CCn2c(-c3ccccc3)nc(C(=O)NC3CCCCC3)c2C1` [Compound 165, N-cyclohexyl-7-isobutyl-3-phenyl-5,6,7,8-tetrahydroimidazo[1,5-a]pyrazine-1-carboxamide] fall in the same range of EC50: 0.1 to 10 nM for the first, 0.1 to 10 nM for the second.

`CC(C)CCNC(=O)c1nc(-c2ccc(Cl)cc2)n2c1CN(CC(C)C)CC2` [Compound 157, 3-(4-chlorophenyl)-7-isobutyl-N-isopentyl-5,6,7,8-tetrahydroimidazo[1,5-a]pyrazine-1-carboxamide] and `CCN1CCn2c(-c3ccc(Cl)cc3)nc(C(=O)NCCC(C)C)c2C1` [Compound 158, 3-(4-chlorophenyl)-7-ethyl-N-isopentyl-5,6,7,8-tetrahydroimidazo[1,5-a]pyrazine-1-carboxamide] fall in the same range of EC50: 10 to 100 nM for the first, 10 to 100 nM for the second.

First: CC(C)CN1CCn2c(-c3ccc(Cl)cc3)nc(C(=O)N[C@H](CO)C(C)(C)C)c2C1 [Compound 160, (S)-3-(4-chlorophenyl)-N-(1-hydroxy-3,3-dimethylbutan-2-yl)-7-isobutyl-5,6,7,8-tetrahydroimidazo[1,5-a]pyrazine-1-carboxamide]
Second: CCN1CCn2c(-c3ccc(Cl)cc3)nc(C(=O)N[C@H](CO)C(C)(C)C)c2C1 [Compound 161, (S)-3-(4-chlorophenyl)-7-ethyl-N-(1-hydroxy-3,3-dimethylbutan-2-yl)-5,6,7,8-tetrahydroimidazo[1,5-a]pyrazine-1-carboxamide]
The EC50 of the first is lower: 0.1 to 10 nM for the first, 10 to 100 nM for the second. The first is the more potent here.

Compared with `CC(C)CN1CCn2c(-c3ccccc3)nc(C(=O)N[C@H](C)C3CCCCC3)c2C1` [Compound 163, (R)-N-(1-cyclohexylethyl)-7-isobutyl-3-phenyl-5,6,7,8-tetrahydroimidazo[1,5-a]pyrazine-1-carboxamide], `CCN1CCn2c(-c3ccccc3)nc(C(=O)N[C@H](C)C3CCCCC3)c2C1` [Compound 164, (R)-N-(1-cyclohexylethyl)-7-ethyl-3-phenyl-5,6,7,8-tetrahydroimidazo[1,5-a]pyrazine-1-carboxamide] is higher in EC50: 0.1 to 10 nM for the first, 10 to 100 nM for the second.

`CC(C)CN1CCn2c(-c3ccccc3)nc(C(=O)NCC3CCOCC3)c2C1` [Compound 167, 7-isobutyl-3-phenyl-N-((tetrahydro-2H-pyran-4-yl)methyl)-5,6,7,8-tetrahydroimidazo[1,5-a]pyrazine-1-carboxamide] and `CCN1CCn2c(-c3ccccc3)nc(C(=O)NCC3CCOCC3)c2C1` [Compound 168, 7-ethyl-3-phenyl-N-((tetrahydro-2H-pyran-4-yl)methyl)-5,6,7,8-tetrahydroimidazo[1,5-a]pyrazine-1-carboxamide] fall in the same range of EC50: 10 to 100 nM for the first, 10 to 100 nM for the second.

`COC(=O)N1CCn2c(-c3ccccc3)nc(C(=O)NC3C4(C)CCC(C4)C3(C)C)c2C1` (stereo not shown) [Compound 178, methyl 3-phenyl-1-(1,3,3-trimethylbicyclo[2.2.1]heptan-2-ylcarbamoyl)-5,6-dihydroimidazo[1,5-a]pyrazine-7(8H)-carboxylate] and `COC(=O)N1CCn2c(-c3ccccc3)nc(C(=O)N[C@H](C)C3CCCCC3)c2C1` [Compound 185, (R)-methyl 1-(1-cyclohexylethylcarbamoyl)-3-phenyl-5,6-dihydroimidazo[1,5-a]pyrazine-7(8H)-carboxylate] fall in the same range of EC50: 10 to 100 nM for the first, 10 to 100 nM for the second.

`COC(=O)N1CCn2c(-c3ccccc3)nc(C(=O)N[C@@H](C)c3ccccc3)c2C1` [Compound 179, (S)-methyl 3-phenyl-1-(1-phenylethylcarbamoyl)-5,6-dihydroimidazo[1,5-a]pyrazine-7(8H)-carboxylate] and `COC(=O)N1CCn2c(-c3ccc(Cl)cc3)nc(C(=O)NCCC(C)C)c2C1` [Compound 183, methyl 3-(4-chlorophenyl)-1-(isopentylcarbamoyl)-5,6-dihydroimidazol[1,5-a]pyrazine-7(8H)-carboxylate] fall in the same range of EC50: 10 to 100 nM for the first, 10 to 100 nM for the second.

First: COC(=O)N1CCn2c(-c3ccc(Cl)cc3)nc(C(=O)N[C@H](CO)C(C)(C)C)c2C1 [Compound 184, (S)-methyl 3-(4-chlorophenyl)-1-(1-hydroxy-3,3-dimethylbutan-2-ylcarbamoyl)-5,6-dihydroimidazo[1,5-a]pyrazine-7(8H)-carboxylate]
Second: CNC(=O)[C@@H](NC(=O)c1nc(-c2ccc(Cl)cc2F)n2c1CN(C)CC2)C(C)(C)C [Compound 241, (S)-3-(4-chloro-2-fluorophenyl)-N-(3,3-dimethyl-1-(methylamino)-1-oxobutan-2-yl)-7-methyl-5,6,7,8-tetrahydroimidazo[1,5-a]pyrazine-1-carboxamide]
The EC50 of the first is higher: 10 to 100 nM for the first, 0.1 to 10 nM for the second. The second is the more potent here.

`CNC(=O)[C@@H](NC(=O)c1nc(-c2ccccc2)n2c1CN(C(=O)C(C)(C)C)CC2)C(C)(C)C` [Compound 190, (S)-N-(3,3-dimethyl-1-(methylamino)-1-oxobutan-2-yl)-3-phenyl-7-pivaloyl-5,6,7,8-tetrahydroimidazo[1,5-a]pyrazine-1-carboxamide] and `CNC(=O)[C@@H](NC(=O)c1nc(-c2ccccc2)n2c1CN(C(=O)C(C)C)CC2)C(C)(C)C` [Compound 191, (S)-N-(3,3-dimethyl-1-(methylamino)-1-oxobutan-2-yl)-7-isobutyryl-3-phenyl-5,6,7,8-tetrahydroimidazo[1,5-a]pyrazine-1-carboxamide] fall in the same range of EC50: 10 to 100 nM for the first, 10 to 100 nM for the second.

Compared with `Cc1noc([C@@H](NC(=O)c2nc(-c3ccccc3)n3c2CN(C2CC2)CC3)C(C)(C)C)n1` [Compound 198, (S)-7-cyclopropyl-N-(2,2-dimethyl-1-(3-methyl-1,2,4-oxadiazol-5-yl)propyl)-3-phenyl-5,6,7,8-tetrahydroimidazo[1,5-a]pyrazine-1-carboxamide], `Cc1nnc([C@@H](NC(=O)c2nc(-c3ccccc3)n3c2CN(CC(C)C)CC3)C(C)(C)C)o1` [Compound 202, (S)-N-(2,2-dimethyl-1-(5-methyl-1,3,4-oxadiazol-2-yl)propyl)-7-isobutyl-3-phenyl-5,6,7,8-tetrahydroimidazo[1,5-a]pyrazine-1-carboxamide] is higher in EC50: 0.1 to 10 nM for the first, 10 to 100 nM for the second.

`CNC(=O)[C@@H](NC(=O)c1nc(-c2ccc(C)c(F)c2)n2c1CN(C)CC2)C(C)(C)C` [Compound 240, (S)-N-(3,3-dimethyl-1-(methylamino)-1-oxobutan-2-yl)-3-(3-fluoro-4-methylphenyl)-7-methyl-5,6,7,8-tetrahydroimidazo[1,5-a]pyrazine-1-carboxamide] and `CNC(=O)[C@@H](NC(=O)c1nc(-c2ccc(C)cc2F)n2c1CN(C)CC2)C(C)(C)C` [Compound 249, (S)-N-(3,3-dimethyl-1-(methylamino)-1-oxobutan-2-yl)-3-(2-fluoro-4-methylphenyl)-7-methyl-5,6,7,8-tetrahydroimidazo[1,5-a]pyrazine-1-carboxamide] fall in the same range of EC50: 10 to 100 nM for the first, 10 to 100 nM for the second.

`CNC(=O)[C@@H](NC(=O)c1nc(-c2cc(C(F)(F)F)ccc2F)n2c1CN(C)CC2)C(C)(C)C` [Compound 245, (S)-N-(3,3-dimethyl-1-(methylamino)-1-oxobutan-2-yl)-3-(2-fluoro-5-(trifluoromethyl)phenyl)-7-methyl-5,6,7,8-tetrahydroimidazo[1,5-a]pyrazine-1-carboxamide] and `CNC(=O)[C@@H](NC(=O)c1nc(-c2cc(Cl)ccc2F)n2c1CN(C)CC2)C(C)(C)C` [Compound 246, (S)-3-(5-chloro-2-fluorophenyl)-N-(3,3-dimethyl-1-(methylamino)-1-oxobutan-2-yl)-7-methyl-5,6,7,8-tetrahydroimidazo[1,5-a]pyrazine-1-carboxamide] fall in the same range of EC50: 10 to 100 nM for the first, 10 to 100 nM for the second.

`CNC(=O)[C@@H](NC(=O)c1nc(-c2cc(C)ccc2F)n2c1CN(C)CC2)C(C)(C)C` [Compound 251, (S)-N-(3,3-dimethyl-1-(methylamino)-1-oxobutan-2-yl)-3-(2-fluoro-5-methylphenyl)-7-methyl-5,6,7,8-tetrahydroimidazo[1,5-a]pyrazine-1-carboxamide] and `CNC(=O)[C@@H](NC(=O)c1nc(C2=CCC(C)CC2)n2c1CN(C)CC2)C(C)(C)C` (stereo partly drawn) [Compound 270, N-((S)-3,3-dimethyl-1-(methylamino)-1-oxobutan-2-yl)-7-methyl-3-(4-methylcyclohex-1-enyl)-5,6,7,8-tetrahydroimidazo[1,5-a]pyrazine-1-carboxamide] fall in the same range of EC50: 10 to 100 nM for the first, 10 to 100 nM for the second.

Compound `CNC(=O)[C@@H](NC(=O)c1nc(-c2ccc(-c3ccccc3)cc2)n2c1CN(C)CC2)C(C)(C)C` [Compound 265, (S)-3-(biphenyl-4-yl)-N-(3,3-dimethyl-1-(methylamino)-1-oxobutan-2-yl)-7-methyl-5,6,7,8-tetrahydroimidazo[1,5-a]pyrazine-1-carboxamide] has an EC50 of 10 to 100 nM.
